Results taken from DBAASP.
≈ marks a conversion by molar mass, not a printed value. Values belong to the molecule of their own block, whether it stands above or below them.

Experiments:
Assay in all cases: ≥ marks a high value that may be exact or a test limit, other limits are often not marked, values filed in µg/mL are converted to µM
[1] = test system: Staphylococcus aureus ATCC 25923
[2] = test system: Candida glabrata 090902
[3] = test system: Psychrobacter faecalis X29
[4] = test system: Nocardia asteroides 201118
[5] = test system: Enterococcus faecalis 981
[6] = test system: Candida albicans F7-39/IDE99
[7] = test system: Escherichia coli B
[8] = test system: Staphylococcus aureus 1
[9] = test system: Staphylococcus aureus ATCC 43300
[10] = test system: Pseudomonas aeruginosa ATCC 27853
[11] = test system: Bacillus subtilis 168
[12] = test system: Staphylococcus epidermidis
[13] = test system: Pseudomonas aeruginosa
[14] = test system: Micrococcus luteus CCM 144
[15] = test system: Staphylococcus aureus
[16] = test system: Cronobacter sakazakii DSM 4485
[17] = test system: Staphylococcus aureus RN4220
[18] = test system: Staphylococcus aureus SA113
[19] = test system: Salmonella enterica subsp. enterica serovar Typhimurium LT2
[20] = test system: Cronobacter muytjensii ATCC 51329
[21] = test system: Cronobacter sakazakii DPC 6440
[22] = test system: Escherichia coli NCIMB 11843
[23] = test system: Klebsiella pneumoniae NCIMB 13218
[24] = test system: Staphylococcus aureus RF122
[25] = test system: Staphylococcus aureus NCTC 8325-4
[26] = test system: Pseudomonas fluorescens NCIMB 9046
[27] = test system: Staphylococcus aureus Newman
[28] = test system: Cronobacter sakazakii ATCC BAA-894
[29] = test system: Escherichia coli ATCC 25922
[30] = test system: Bacillus subtilis ATCC 23857
[31] = test system: Candida albicans ATCC 64550
[32] = test system: Pseudomonas aeruginosa ATCC 9027
[33] = test system: Bacillus cereus ATCC 11778
[34] = test system: Escherichia coli ATCC 35218
[35] = test system: Acinetobacter baumannii ATCC 7978
[36] = test system: Staphylococcus aureus ATCC 29231
[37] = test system: Pseudomonas aeruginosa PA14
[38] = test system: Klebsiella pneumoniae WGLW2
[39] = test system: Pseudomonas aeruginosa PAO1

Structure (SMILES): CC[C@H](C)[C@@H]1NC(=O)[C@H](CCC(=O)O)NC(=O)[C@@H](NC(=O)[C@@H](NC(=O)[C@@H](NC(=O)[C@H](CCCCN)NC(=O)[C@@H]2CCCN2C(=O)[C@H](CC(C)C)NC(=O)[C@H](Cc2ccccc2)NC(=O)[C@H](CC(C)C)NC(=O)[C@@H]2CCCN2C(=O)[C@H](CC(C)C)NC(=O)[C@@H](N)Cc2ccccc2)[C@@H](C)CC)[C@@H](C)CC)CSSC[C@@H](C(=O)O)NC(=O)[C@H](CCCCN)NC(=O)[C@H](CCCCN)NC(=O)[C@H]([C@@H](C)O)NC1=O [FLPLFLPKIICEITKKC]
MIC [1]: 100 µM (≈ 200 µg/mL)
MIC [2]: 25 µM (≈ 50.1 µg/mL)
MIC [3]: ≥ 50 µM
MIC [4]: 25 µM (≈ 50.1 µg/mL)
MIC [5]: ≥ 50 µM

Structure (SMILES): CC[C@H](C)[C@H](NC(=O)CN)C(=O)N[C@@H](CC(C)C)C(=O)N[C@@H](CCCCN)C(=O)N[C@@H](CO)C(=O)N[C@@H](CC(C)C)C(=O)N[C@@H](CC(C)C)C(=O)N[C@@H](CCCCN)C(=O)N[C@@H](CCCCN)C(=O)N[C@@H](CC(C)C)C(=O)N[C@@H](CCCCN)C(=O)N[C@@H](CCCCN)C(=O)N[C@H](C(=O)N[C@H](C(=O)N[C@@H](C)C(=O)N[C@@H](CCCCN)C(N)=O)[C@@H](C)CC)[C@@H](C)CC [GILKSLLKKLKKIIAK]
MIC [6]: 24 µM (≈ 43 µg/mL)
MIC [7]: 10 µM (≈ 17.9 µg/mL)
MIC [8]: 4.3 µM (≈ 7.71 µg/mL)
MIC [9]: 17 µM (≈ 30.5 µg/mL)
MIC [10]: 5 µM (≈ 8.97 µg/mL)
MIC [11]: 7 µM (≈ 12.6 µg/mL)
MIC [12]: 2.2 µM (≈ 3.95 µg/mL)
MIC [13]: 8.9 µM (≈ 16 µg/mL)
MIC [14]: 3 µM (≈ 5.38 µg/mL)
MIC [15]: 10 µM (≈ 17.9 µg/mL)

Structure (SMILES): CC[C@H](C)[C@H](NC(=O)CN)C(=O)N[C@@H](CCSC)C(=O)N[C@@H](CO)C(=O)N[C@@H](CO)C(=O)N[C@@H](CC(C)C)C(=O)N[C@@H](CCSC)C(=O)N[C@@H](CCCCN)C(=O)N[C@@H](CCCCN)C(=O)N[C@@H](CC(C)C)C(=O)N[C@@H](CCCCN)C(=O)N[C@@H](CCCCN)C(=O)N[C@H](C(=O)N[C@H](C(=O)N[C@@H](CCCCN)C(=O)N[C@@H](CCCCN)C(N)=O)[C@@H](C)CC)[C@@H](C)CC [GIMSSLMKKLKKIIKK]
MIC [6]: 6.3 µM (≈ 11.6 µg/mL)
MIC [7]: 22 µM (≈ 40.6 µg/mL)
MIC [8]: 18 µM (≈ 33.2 µg/mL)
MIC [9]: 54 µM (≈ 99.7 µg/mL)
MIC [10]: 7.1 µM (≈ 13.1 µg/mL)
MIC [11]: 7 µM (≈ 12.9 µg/mL)
MIC [12]: 1.7 µM (≈ 3.14 µg/mL)
MIC [13]: 9.9 µM (≈ 18.3 µg/mL)
MIC [14]: 3 µM (≈ 5.54 µg/mL)
MIC [15]: 65 µM (≈ 120 µg/mL)

Structure (SMILES): CC[C@H](C)[C@H](N)C(=O)N[C@@H](CCCCN)C(=O)N[C@@H](CCC(N)=O)C(=O)NCC(=O)N[C@@H](CC(C)C)C(=O)N1CCC[C@H]1C(=O)N[C@@H](CCC(N)=O)C(=O)N[C@@H](CCC(=O)O)C(=O)O [IKQGLPQE]
MIC [16]: ≥ 2500 µM
MIC [17]: ≥ 2500 µM
MIC [18]: ≥ 2500 µM
MIC [19]: ≥ 2500 µM
MIC [20]: ≥ 2500 µM
MIC [21]: ≥ 2500 µM
MIC [22]: ≥ 2500 µM
MIC [23]: ≥ 2500 µM
MIC [24]: ≥ 2500 µM
MIC [25]: ≥ 2500 µM
MIC [26]: ≥ 2500 µM
MIC [27]: ≥ 2500 µM
MIC [28]: ≥ 2500 µM

Continued, values first:

MIC [29]: 16 µM (≈ 21.7 µg/mL)
MIC [10]: 8 µM (≈ 10.8 µg/mL)
MIC [1]: 16 µM (≈ 21.7 µg/mL)
MIC [30]: 8 µM (≈ 10.8 µg/mL)
MIC [31]: 12.5 µM (≈ 16.9 µg/mL)
Structure (SMILES): CC(C)C[C@H](NC(=O)[C@H](CC(C)C)NC(=O)[C@H](CCCCN)NC(=O)[C@H](CCCCN)NC(=O)[C@H](Cc1c[nH]c2ccccc12)NC(=O)[C@H](Cc1c[nH]c2ccccc12)NC(=O)[C@H](CCCCN)NC(=O)[C@H](CC(C)C)NC(=O)[C@H](CC(C)C)NC(=O)[C@@H](N)CCCCN)C(N)=O [KLLKWWKKLL]

MIC [32]: > 50 µM
MIC [1]: > 50 µM
MIC [33]: ≥ 50 µM
MIC [34]: ≥ 50 µM
Structure (SMILES): CC(C)C[C@H](NC(=O)[C@@H](NC(=O)[C@@H](N)CCCCN)C(C)C)C(=O)N[C@@H](CCCCN)C(=O)N[C@@H](C)C(=O)N[C@@H](C)C(=O)N[C@@H](C)C(N)=O [KVLKAAA]

MIC [35]: ≥ 52.4 µM
MIC [36]: ≥ 52.4 µM
MIC [37]: ≥ 52.4 µM
MIC [38]: ≥ 52.4 µM
Structure (SMILES): CC[C@H](C)[C@H](NC(=O)[C@H](CCCCN)NC(=O)[C@H](Cc1c[nH]c2ccccc12)NC(=O)[C@H](Cc1c[nH]c2ccccc12)NC(=O)[C@@H](NC(=O)[C@H](CCCCN)NC(=O)[C@H](Cc1c[nH]c2ccccc12)NC(=O)[C@@H](N)CC(C)C)[C@@H](C)CC)C(=O)N[C@@H](Cc1c[nH]c2ccccc12)C(=O)N[C@@H](CCCN=C(N)N)C(=O)N[C@H](C(=O)N[C@@H](Cc1c[nH]c2ccccc12)C(=O)N[C@@H](Cc1c[nH]c2ccccc12)C(=O)N[C@@H](CC(N)=O)C(=O)N[C@@H](Cc1c[nH]c2ccccc12)C(=O)N[C@@H](CCCN=C(N)N)C(=O)O)C(C)C [LWKIWWKIWRVWWNWR]

MIC [16]: ≥ 312 µM
MIC [17]: ≥ 312 µM
MIC [18]: ≥ 1250 µM
MIC [19]: ≥ 2500 µM
MIC [10]: 64 µM (≈ 53.9 µg/mL)
MIC [20]: ≥ 2500 µM
MIC [21]: ≥ 1250 µM
MIC [22]: ≥ 2500 µM
MIC [23]: ≥ 2500 µM
MIC [24]: ≥ 156 µM
MIC [25]: ≥ 2500 µM
MIC [26]: ≥ 2500 µM
MIC [27]: ≥ 1250 µM
MIC [28]: ≥ 1250 µM
Structure (SMILES): CC(C)C[C@H](NC(=O)[C@H](CC(N)=O)NC(=O)[C@H](CCC(=O)O)NC(=O)[C@H](CC(N)=O)NC(=O)[C@H](CC(C)C)NC(=O)[C@@H](N)C(C)C)C(=O)N[C@@H](C)C(=O)N[C@@H](C)C(=O)O [VLNENLAA]

MIC [39]: 10.2 µM (≈ 9.99 µg/mL)
MIC [31]: 25 µM (≈ 24.5 µg/mL)
Structure (SMILES): CC[C@H](C)[C@H](NC(=O)[C@H](CCCN=C(N)N)NC(=O)[C@H](CC(C)C)NC(=O)[C@H](CCCN=C(N)N)NC(=O)[C@@H](N)C(C)C)C(=O)N[C@@H](CCCN=C(N)N)C(=O)N[C@H](C(=O)N[C@@H](C)C(N)=O)C(C)C [VRLRIRVA]
